Assays:
TRL V6 = assay: Cross therapeutic target rat study: reduction of circulating TRL V6 concentration after an acute dose (NMR LipoProfile); format: in vivo, DIO-LE rats; conditions: for Reduction in TRL V6 Response T1-(ie 2 hrs) / Reduction in TRL V6 Response T2-(ie 5 hrs) / Reduction in TRL V6 Response T3-(ie 18 hrs): DIO-LE rats on high fat chow, acute dose as in the Dose column; for Reduction in TRL V6 Response T1-(ie 2 hrs): T1 (ie 2 hrs) post dose; for Reduction in TRL V6 Response T2-(ie 5 hrs): T2 (ie 5 hrs) post dose; for Reduction in TRL V6 Response T3-(ie 18 hrs): T3 (ie 18 hrs) post dose; for reduction of circulating concentration of TRL V6 / reduction of circulating TRL V6 concentration / time by which TRL V6 plasma concentration returns to baseline: SNDRI 3 mg/kg; for time by which TRL V6 plasma concentration returns to baseline: post dose
Method: As a typical example, whole blood samples are collected into 2 ml EDTA blood collection tubes, inverted several times to mix well, and placed on ice. The samples are then centrifuged at approximately 3000 rpm for 10-15 minutes at 4° C. Upon completion of centrifugation, the tube is placed on ice and the plasma is drawn off The plasma is place into a polypropylene tube and kept at 4° C. until analysis. Samples may be analyzed at any time up to about 4 days after collection. Samples are analyzed for TRL V6 response, as for example by NMR plasma lipoprotein analysis, as for example, the NMR LipoProfile®, the NMR LipoProfile®-II or the NMR LipoProfile®-III lipoprotein tests provided by LipoScience, Inc. of Raleigh, N.C.
The ability of investigational weight loss pharmaceutical agents to reduce the TRL V6 concentration in rats is shown with three compounds targeting different mechanisms of action including a known potent and selective 5-HT2C receptor agonist, a known potent and selective CB-1 receptor antagonist/inverse agonist, and a potent SNDRI (sibutramine) Each of these compounds are known to induce weight loss in rats and thus the biomarker of reduction in TRL V6 concentration correlates to the investigational weight loss pharmaceutical agents' ability to induce weight loss. Conversely, an opiate antagonist, (naltrexone) which is known to be ineffective in inducing weight loss in rats or in overweight and obese human subjects (Malcolm R et al., Int. J. Obes. 1985; 9(5):347-53), is shown to not reduce the TRL V6 concentration in rats, again correlating the biomarker of reduction in TRL V6 concentration to the investigational weight loss pharmaceutical agents' ability to induce weight loss.
DIO-LE rats maintained on a high fat chow are administered either a vehicle dose or an acute dose of test compound. At specified time points post dose, animals are sacrificed and blood is collected in blood sample tubes containing EDTA and processed essentially as described above. Samples are analyzed by NMR LipoProfile® lipoprotein sub-particle test with report of all particle subtypes (specifically the TRL V6 concentration or particle number).

[1] = test system: large triglyceride rich lipoprotein subclasses; assay: Human study with sibutramine: TRL response (AUC 5-11 hr) to fat load versus placebo, NMR LipoProfile; format: in vivo
Method: Note that where TRL V6 response can be equated with the response of a combination of subtypes, it is because the magnitude of the change in signal, which is due to the change of TRL V6 signal, is sufficiently large compared to the base line signal, to be a significant difference (i.e. the signal from TRL V6 in the base line signal dominates the combined signal so that a change in TRL V6 is reliably detected).
A SNDRI (sibutramine) known to be able to induce weight loss in humans is tested to correlate its ability to reduce TRL V6 response plasma concentrations and V-TRL response in humans in an exploratory biomarker study employing a single-blind, crossover design, comparing sibutramine and placebo in hypertriglyceridemic and overweight and obese but otherwise healthy subjects.
Three cohorts containing 6 subjects each, undergo three periods during the study. Subjects are fasted overnight and two fasting blood draws are obtained, followed by breakfast at approximately 07:00 hours. Placebo or sibutramine is administered at approximately 10:00 hours. Blood sampling is begun approximately 1 hr. after the start of breakfast and continues at hourly intervals for 7 hr., and then every 2 hr. for the next 10 hr. A lunch according to Example fat load 2 is served at approximately 12:00 hours (approximately 60 to 65 g of fat). No other food is permitted until 12 hr. post fat load administration. Subjects are released after the last blood sampling for a 4 to 8-day washout period before return for the second testing period of the study. After the washout period, subjects are again fasted overnight. The procedures are then repeated as in the first testing period of the study except that each subject crosses over to receive the alternate treatment, sibutramine or placebo. Blood samples are collected, processed and analyzed essentially as described in Example 1 above.
TRL V6 responses and V-TRL responses are observed during the period from 5 to 11 hr. post fat load. […] In most subjects, the administration of sibutramine reduced the magnitude of the TRL V6 response and V-TRL response compared to their placebo-treated responses. Thus the reduction of the TRL V6 response and V-TRL response induced by the SNDRI correlates with the SNDRI known ability to induce weight loss in humans.

[2] = rats, 2 hr. post dose, 5-HT2C agonist 10 mg/kg, naltrexone 10 mg/kg oral
[3] = rats, 5 hr. post dose, CB-1 antagonist 0.3 mg/kg
[4] = rats, 5-HT2C agonist 10 mg/kg, CB-1 antagonist 0.3 mg/kg, naltrexone 10 mg/kg oral
[5] = AUC 5-11 hr. time points from lipid load
[6] = AUC 5-11 hr. time points from lipid load, chylomicrons
[7] = versus placebo, 5-11 hr. post fat load

## CC(C)CC(N(C)C)C1(c2ccc(Cl)cc2)CCC1 (stereo not drawn) [Sibutramine, sibutramine]
TRL V6
  Reduction in TRL V6 Response T1-(ie 2 hrs): 78%
  Reduction in TRL V6 Response T2-(ie 5 hrs): 78%
  Reduction in TRL V6 Response T3-(ie 18 hrs): 0%
TRL V6; [2]
  reduction of circulating concentration of TRL V6: about 78%
TRL V6; rats, 2 hr. post dose
  reduction of circulating TRL V6 concentration: about 78%
TRL V6; [3]
  reduction of circulating TRL V6 concentration: about 78%
  reduction of circulating concentration of TRL V6: about 78%
TRL V6; [4]
  time by which TRL V6 plasma concentration returns to baseline: about 18 hr
[1]; AUC 5-11 hr. post fat load, mixed effects model, average of treated arms
  decrease in the TRL V6 response versus placebo: about 28%
[1]; [5]
  Geometric LS Mean of AUC, analyte TRL V5: 222.34
  Geometric LS Mean of AUC, analyte TRL V6: 119.35
  Geometric LS Mean of AUC, analytes TRL V6 + Chy: 205.0
  Geometric LS Mean of AUC, analytes TRL V6 + TRL V5: 364.08
  Geometric LS Mean of AUC, analytes TRL V6 + V5 + Chy: 458.04
  Sibutramine/Placebo Ratio of AUC, analyte TRL V5: 1.10
  Sibutramine/Placebo Ratio of AUC, analyte TRL V6: 0.73
  Sibutramine/Placebo Ratio of AUC, analytes TRL V6 + Chy: 0.81
  Sibutramine/Placebo Ratio of AUC, analytes TRL V6 + TRL V5: 0.88
  Sibutramine/Placebo Ratio of AUC, analytes TRL V6 + V5 + Chy: 0.89
[1]; [6]
  Geometric LS Mean of AUC, analyte Chy: 81.11
  Sibutramine/Placebo Ratio of AUC, analyte Chy: 0.98
[1]; [7]
  change in mean V-TRL response (in words): statistically significant decrease
  change in plasma concentrations of TRL V1, V2, V3, V4, or V5 subtypes (in words): does not show a significant change

## O=C1CC[C@@]2(O)[C@H]3Cc4ccc(O)c5c4[C@@]2(CCN3CC2CC2)[C@H]1O5 [Naltrexone, naltrexone]
TRL V6
  Reduction in TRL V6 Response T1-(ie 2 hrs): 30%
  Reduction in TRL V6 Response T2-(ie 5 hrs): 0%
  Reduction in TRL V6 Response T3-(ie 18 hrs): 0%
TRL V6; rats, 10 mg/kg oral, 18 hr. post dose
  TRL V6 level at 18 hr. post dose (in words): unchanged
TRL V6; rats, 10 mg/kg orally administrated dose
  effect on circulating TRL V6 levels (in words): minimal effect
TRL V6; [2]
  reduction of circulating concentration of TRL V6: 30%
TRL V6; [4]
  time by which TRL V6 plasma concentration returns to baseline: 5 h

From patent US8084261B2, “Method for predicting responsiveness to a pharmaceutical therapy for obesity” (priority 2007, dated 2011)
